Values quoted from earlier work as cited in patent US20250360058A1, “IN SITU FORMED CATIONIC ACP GEL FOR TREATMENT OF TOOTH […]” (KONINKLIJKE PHILIPS N.V., priority 2022, published 2025).

Conditions: between pH 6.5-8.0

Question: With `N=C(N)NCCC[C@H](N)C(=O)O` [Arginine, arginine] as the compound, how does the “positively charged basic side chains” value read?
Answer: 100%

Question: Which “positively charged basic side chains” value does the source give for `NCCCC[C@H](N)C(=O)O` [Lysine, lysine] here?
Answer: 100%
